By solubility is commonly meant how much of the substance goes into solution per volume. A lower solubility goes with a poorly soluble substance. The term half-life denotes how long it takes for the measured level to halve. A high value points to slow loss. By logD is commonly meant the decadic logarithm of the distribution of all forms, ionised or not, between an organic phase and buffer at a given pH. The low end stands for lower lipophilicity, the high end for higher lipophilicity. Usually AUC(0-inf) stands for the area under the concentration-time curve extrapolated to infinity. The term Cmax denotes the peak of the concentration-time curve. The Tmax is the time at which the peak concentration occurs.

Here are results for two compounds from paper PMC11208559 (Scientific Reports, 2024).

For data set [1] the following is noted: cited from earlier work.
The target of data set [2] is T1, human delta opioid receptor (Homo sapiens, UniProt P41143).
T1 construct: membrane protein
Briefly: Competition radioligand binding vs 3H-diprenorphine, delta opioid receptor. Conditions: up to a 10 μM concentration.

For data set [3] the following is noted: 1 and 10 mg/kg i.v.
Data set [4] can be described thus: physchem. Conditions: pH 6.8, aqueous buffer, thermodynamic from solid.
Data set [5] is described as follows: in vitro. It is filed as in vitro ADME. Particulars: male, human, microsomes. The method, then: (§1) Metabolic stability of lead compounds was assessed in vitro by the method of Di et al.[32]. Briefly, mouse liver microsomes (Corning Life Sciences, Woburn, MA) were isolated from CD-1 mice (male mice, 8 − 10 weeks of age). Assays were conducted using 0.123 mg/mL protein concentration (total protein concentration in the microsomal solution) and 1.0 μM drug concentration under incubation conditions of 37 °C. Metabolic stability was determined following 0, 5, 15, 30, and 60 min of incubation time. The samples were analyzed by reversed phase LC using a triple quadrupole mass spectrometer. Compound specific transitions of parent ion to product ion were monitored and percent remaining calculated based on peak area of 5 − 60 min time points (relative to time zero). Half-life calculations were determined using the formula t½ = − ln(2)/k, where k (min^−1) is the turnover rate constant (the slope) estimated from a log − linear regression of the percentage compound remaining versus time.
Metabolic stability of the compounds in human liver microsomes was determined by the method described above using pooled human liver microsome preparations from 20 male donors (Corning Life Sciences, Woburn, MA). Assays were conducted as described above and the in vitro half-life of the compounds was calculated. […]

Data set [6] in a line: physchem. It is filed as physicochemical. The method, then:
Distribution coefficient (LogD) was determined by the method of Wilson et al.[30]. Briefly, 5 µL volumes of test compounds diluted in DMSO were added to a mixture of equal volumes of 50 mM phosphate buffer and 1-octanol. The compounds were assayed using a 50 nM concentration in order to limit compound precipitation and to ensure that the assay values were maintained within the dynamic range of the LC–MS/MS instrumentation. Samples were vortex mixed at 800 rpm for 24 h. Subsequent to centrifugation at 14,000 rpm for 30 min, 1 µL of each layer was analyzed by LC–MS/MS. LogD was calculated using the peak areas obtained from each layer.
LC − MS/MS analysis was conducted using an Agilent (Santa Clara, CA) 6460 triple quadrupole mass spectrometer coupled with an Agilent liquid chromatography (LC) system. The LC system consists of a binary pump, degasser, column heater, and autosampler. Chromatographic separation was performed on a Waters Atlantis T3 3 µm 3.0 × 50 mm analytical column using a ballistic gradient of mobile phase consisting of 0.1% formic acid in water (A) and 0.1% formic acid in acetonitrile (B) at a flow rate of 0.75 mL/min. The mobile phase was heated to a temperature of 45 °C.

The next data set can be described thus: in vivo. Conditions: CD-1, mouse, iv.
Data set [7] concerns CD-1 mice. Briefly: Post-surgical paw incision, mechanical allodynia (von Frey), morphine anti-nociception. It counts as in vivo. Particulars: 1 mg/kg inhibitor i.v., 24 h, then 1–3.2 mg/kg morphine s.c.; peak %MPE; 95% CI in parentheses. The method, then:
Mechanical thresholds were determined prior to surgery using calibrated von Frey filaments (Ugo Basile, Varese, Italy) with the up-down method and four measurements after the first response per mouse as in Ref.[27] and our previously published work (e.g. Ref.[28]). The mice were housed in a homemade apparatus with Plexiglas walls and ceiling and a wire mesh floor (3-inch wide 4-inch long 3-inch high with 0.25-inch wire mesh). The surgery was then performed by anesthesia with ~ 2% isoflurane in standard air, preparation of the left plantar hind paw with iodine and 70% ethanol, and a 5-mm incision made through the skin and fascia with a no. 11 scalpel. The muscle was elevated with curved forceps leaving the origin and insertion intact, and the muscle was split lengthwise using the scalpel. The wound was then closed with 5–0 polyglycolic acid sutures. Mice were then injected with inhibitor or Vehicle control and left to recover for 24 h. Our intrathecal (i.t.) injection protocol is reported in Refs.[13],[29]; briefly, the injection was made in awake and restrained animals with a 10 μL Hamilton syringe and 30 g needle (5–7 μL volume) between the L5-L6 vertebrae at a 45° angle, with placement validated by tail twitch. Since the injection was made through skin with no incision or other surgical intervention, repeated injection protocols were performed the same way. The next day, the mechanical threshold was again determined as described above. […] . No animals were excluded from these studies.

Data set [8] deals with CD-1 mice. Conditions: mouse, in vivo.
In data set [9] the test system is CD-1 mice. Briefly: Morphine anti-nociceptive tolerance and tolerance rescue (tail flick). It is filed as in vivo. Conditions: 3 days twice daily 10 mg/kg morphine s.c.; 1 mg/kg i.v. on day 3, 24 h; 10 mg/kg morphine s.c.; tail flick. The method, then:
(§2) Pre-injection tail-flick baselines were determined in a 52 °C tail-flick assay with a 10-s cutoff time (method also reported in Ref.[13]). […] No animals were excluded from these studies.

In data set [10] the test system is CD-1 mice. Description: 52 °C tail-flick assay, morphine anti-nociception after Hsp90 inhibitor treatment. It counts as in vivo. The method, then: as §2
A general note: Hot-plate and tail-flick tests time the reaction to a heat stimulus.

The target of data set [11] is T2, human kappa opioid receptor (Homo sapiens, UniProt P41145).
T2 construct: membrane protein
Description: Competition radioligand binding vs 3H-diprenorphine, kappa opioid receptor. Conditions: up to a 10 μM concentration.

The next data set has as its target T3, human mu opioid receptor (Homo sapiens, UniProt P35372).
T3 construct: membrane protein
It counts as binding. Conditions: up to a 10 μM concentration.

Data set [12] in a line: in vitro. It counts as in vitro ADME, CD-1 mice. Particulars: male, CD-1, mouse, microsomes. The method, then: as §1
LC − MS/MS analysis was conducted using an Agilent (Santa Clara, CA) 6460 triple quadrupole mass spectrometer coupled with an Agilent liquid chromatography (LC) system. The LC system consists of a binary pump, degasser, column heater, and autosampler. […]

In brackets after ≈: the same amount, converted by molar mass.

Consider `C=CCNC1=C2C[C@@H](C)C[C@H](OC)[C@H](O)[C@@H](C)/C=C(\C)[C@H](OC(N)=O)[C@@H](OC)/C=C\C=C(/C)C(=O)NC(=CC1=O)C2=O` [17-AAG], for which the “tolerability in clinical trials” value in data set [1] is “liver toxicity”.
For `COC(=O)c1c(O)cc(O)c(Cl)c1CCc1ccccc1Cc1ccc(F)cc1` [KUNG65], the “binding to delta opioid receptor (competition vs 3H-diprenorphine)” value in [2] is on record as “no binding”. Further, the “exposure in the spinal cord” value in data set [3] is on record as “very low exposure”. The compound also gave a solubility at 24 h in “physchem [4]” of 0.074 µM (≈ 0.0307 µg/mL). Further, in the data set “in vitro [5]”, the half-life at 1 µM turned out to be 144 min. Moreover, the log distribution coefficient (logD) at 24 h in “physchem [6]” worked out at 3.3. Also, in “in vivo” (1 mg/kg), the total exposure AUC(0-inf) was 0.245 µM·h, the peak level (Cmax) was 418 nM, the time to peak (Tmax) stood at 4.98 min and the half-life was 36 min. In the data set “in vivo” (10 mg/kg), the AUC(0-inf) is 0.46 µM·h, the peak level (Cmax) was 1070 nM, the time to peak (Tmax) was found to be 4.98 min and the half-life is 38.4 min. Further, in the data set with CD-1 mice [7], the “A50 (morphine anti-nociceptive potency), paw incision, systemic inhibitor” value was 0.9 (0.5–1.2) mg/kg. The “effect on respiratory activity before and after morphine” value in the data set with CD-1 mice [8] is given as “no effect on respiration before or after morphine injection”. Besides, in the data set with CD-1 mice [9], the “rescue of established morphine tolerance, systemic inhibitor” value was “rescued established tolerance”. The “naloxone reversibility of inhibitor-enhanced morphine pain relief” value with CD-1 mice [10] (1 mg/kg i.v., 24 h, 2 mg/kg naloxone i.p. 10 min, 3.2 mg/kg morphine s.c., tail flick) is given as “fully naloxone-reversible”. In the data set on CD-1 mice [10] (1 mg/kg i.v., 48 h, then 3.2 mg/kg morphine s.c.), the “effect on morphine tail flick anti-nociception 48 h after treatment” value was “no effect”. In addition, the “A50 (morphine anti-nociceptive potency), tail flick, systemic inhibitor” value in the data set with CD-1 mice [10] (1 mg/kg inhibitor i.v., 24 h, then 1–5.6 mg/kg morphine s.c., peak %MPE, 95% CI in parentheses) was 1.9 (1.4–2.3) mg/kg. The “effect of higher 10 mg/kg dose on morphine pain relief (tail flick)” value in the data set on CD-1 mice [10] (10 mg/kg i.v. vs 1 mg/kg i.v., 24 h, then 3.2 mg/kg morphine s.c.) is “elevated morphine pain relief, it did so less than a 1 mg/kg dose”. Besides, the “effect of spinal cord Grp94 CRISPR knockdown on benefit of systemic inhibitor” value in the data set with CD-1 mice [10] (Grp94 CRISPR i.t., 1 mg/kg i.v. on day 9, 24 h, 3.2 mg/kg morphine s.c., tail flick) is recorded as “abolished the benefit”. Further, the “binding to kappa opioid receptor (competition vs 3H-diprenorphine)” value in data set [11] was “no binding”. Besides, the “binding to mu opioid receptor (competition vs 3H-diprenorphine)” value on human mu opioid receptor is given as “no binding”. For the same compound, the half-life at 1 µM in “in vitro [12]” is 32 min.
